Test results: patent US10548883B2, “Benzotriazole-derived α and β-unsaturated amide compound used as TGF-β RI inhibitor” (GENFLEET THERAPEUTICS (SHANGHAI) INC., priority 2016, dated 2020)

What was measured:
TGF-βRI = biological target: T1, TGF-βRI (Homo sapiens, UniProt P36897); assay: Test of inhibitory activity of TGFβ-RI in vitro; type: biochemical; details: 10 μM ATP
T1 sequence (P36897 34-503): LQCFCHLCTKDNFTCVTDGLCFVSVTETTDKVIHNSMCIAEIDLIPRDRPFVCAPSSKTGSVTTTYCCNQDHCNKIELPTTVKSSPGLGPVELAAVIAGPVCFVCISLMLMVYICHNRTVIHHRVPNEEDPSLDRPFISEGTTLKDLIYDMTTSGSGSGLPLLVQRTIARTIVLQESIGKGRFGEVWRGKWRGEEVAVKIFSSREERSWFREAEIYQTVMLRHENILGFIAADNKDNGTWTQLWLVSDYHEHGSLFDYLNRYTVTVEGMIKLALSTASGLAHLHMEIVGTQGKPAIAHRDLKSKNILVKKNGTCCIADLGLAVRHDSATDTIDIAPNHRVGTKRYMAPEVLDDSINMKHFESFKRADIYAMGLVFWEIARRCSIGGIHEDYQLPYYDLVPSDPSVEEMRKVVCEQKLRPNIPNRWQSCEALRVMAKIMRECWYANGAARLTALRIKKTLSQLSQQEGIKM
Description: i) Test compound: the IC50 was determined by diluting into 10 gradient points with each gradient by three-fold dilution and with a starting concentration of 5 μM.
ii) The IC50 of reference compound LDN193189 was determined by diluting into 10 gradient points with each gradient by three-fold dilution and with a starting concentration of 20 μM.
iii) The reaction system contains 10 μM ATP.
iv) Calculate the IC50 value by curve fitting when the percentage of enzyme activity (compared to the solvent group) is below 65% at the highest concentration of the sample.

[1] = tested on: NIH/3T3 mouse embryonic cells; assay: Test of proliferation inhibition on NIH/3T3 mouse embryonic cells (CellTiter-Glo, with TGF-β1); type: cell-based; details: NIH3T3, 0.2 ng/mL TGF-β1, 72 h
Description: Promega's Luminescent Cell Viability Assay (CellTiter-Glo® method, i.e. ATP fluorescence activity detection and analysis), the compound is added to the cell culture plate for incubation. A substrate buffer for detecting intracellular ATP content was added on the day of detection. Slightly shake and centrifuge at 1000 rpm for 1 min. Tested after standing for 10 min. The assay plate was analyzed using Envision multifunctional enzyme marker of PerkinElmer, Inc., and the analysis mode was fluorescence detection, and the data was expressed by the reading of chemiluminescence signal at 400-700 nm.
i) When the cell growth coverage is about 70%, the cell layer was washed with 10 mL of Duchenne phosphate buffer (D-PBS) which is calcium- and magnesium-free, then 2 mL of 0.25% trypsin-EDTA digest was added. The cell culture flask was placed in a CO2 carbon dioxide incubator at 37° C. and incubated for 3-5 min, then 8 mL of complete culture medium containing 2% FBS DMEM cells was added, and the cells were puffed evenly into single cell and counted by Vi-cell cytometer, and NIH/3T3 cell suspension was diluted to 0.375×10^5/mL cells.
ii) 50 μL of 2% DMEM-containing medium was added around the 384-well cell culture plate, then 40 μL of cell suspension was added to the remaining wells to 1500 cells per well. The distribution of the cells was observed under a microscope, and the cell plates were placed in a cell culture incubator with 5% CO2 at 37° C.
iii) Dilution of the compound refers to the preparation of the compound.
iv) A mixture of 2% fetal bovine serum containing 1 ng/mL TGF-β1 in DMEM medium was added manually to the compound intermediate plate, 20 μL per well.
v) The compound intermediate plate was shook slightly for 10 sec at 1000 rpm/min and centrifuge for 10 sec.
vi) 10 uL of the mixed liquid from steps 4 and 5 of each well was transferred to the inoculated cell plate to a final volume of 50 μL by using a Bravo liquid workstation, and the final concentration of TGF-β1 was diluted to 0.2 ng/mL, and centrifuged for 10 sec at 1000 rpm/min. The plates were placed in an incubator with 5% carbon dioxide at 37° C., 5% carbon dioxide for 72 h. The final concentration of the compound is: (unit: μM)
vii) The cell plate containing the compound was cultured in a cell incubator with 5% CO2 at 37° C. for 3 days.
viii) After that, 25 μL of ATP fluorescence activity detection solution was added to each well of the cell plate, then shook gently for about 1 min and centrifuged at 500 rpm/min for about 30 sec, and the reading was performed in an Envision instrument after standing at room temperature for 10 min in the dark.

Question: What does the source list for `Cc1cccc(-c2nn3c(c2-c2ccc4ncnn4c2/C=C/C(N)=O)CCC3)n1` [Embodiment 1]?
Answer: IC50 (TGF-βRI): 1 to 50 nM; IC50 [1]: 500 to 2000 nM
